# Tests used:
# [1] = tested on: DU145 cells; test: Western blot of EMT, CSC markers and AR in DU145; type: cell-based; details: DU145, 20 μM, 48 hours
# Description: Due to our interest in CRPC the cell lines DU145 and PC3 were chosen due to their chemoresistance to high concentrations of enzalutamide, androgen independence, and relatively high expression of FOXC2 (FIGS. 30A&B). First, the effect of MC-1-F2 on the inhibition of EMT markers was examined (FIGS. 26A-G). […] The variability in E-cadherin expression can be due to a different mode of action the ligand MC-1-F2 is having on prostate cancer cells, possibly a time dependent effect of the ligand.
# After confirmation of the ligand's ability to block EMT, the ligand's ability to decrease cancer stem cell (CSC) characteristics was determined. CRPC is plagued by a higher ratio of CSC to normal prostate cells, leading to the acquired characteristics of higher proliferative and self-renewal capabilities (Yun et al., 2016). CSC markers, Nanog, C-myc and KLF4, were examined.
# 50 μg of total protein per sample was incubated with 4× loading buffer at 100° C. for 5 min. Protein samples were then loaded into a polyacrylamide gel and subjected to SDS-PAGE. Resolved proteins were then transferred by a wet transfer method to a PVDF membrane at 100 V for 1 hour using a BioRad Mini Trans-Blot Electrophoresis Transfer Cell. Upon the completion of wet transfer, the membrane was then blocked with 5% (w/v) fat-free milk in 1× Tris-buffered saline/0.1% (v/v) Tween-20 (TBS-T) for at least 1 hour. Then incubated with the respective primary antibodies diluted in 5% BSA in 1×TBST at 4° C. overnight. The following day exposed to 1:1000 dilution of anti-mouse […] secondary antibodies in 5% (w/v) fat-free milk in 1×TBS-T for 1 hour at room temperature. The probed proteins were then detected for chemiluminescent signal using SuperSignal Chemiluminescent Substrate (PIERCE). Pierce antibodies: B-actin, and all other antibodies used are from cell signaling.
# [2] = tested on: DU145 cells; test: Co-treatment MTT assay, DU145; details: constant ratio
# [3] = tested on: MDA-MB-231 cells; test: Transwell invasion assay, MDA-MB-231; type: cell-based; details: MDA-MB-231, 20 μM, 24 hours
# Procedure: Reversal of EMT mediated by MC-1-F2 was anticipated to lead to the inhibition of metastatic capability of cancer cells. […] A wound healing assay was carried out to examine the migratory capabilities of cells in closing a “wound” or gap over a period of 24 hours. […] Inhibition of migratory capabilities of cells only measures one aspect of EMT progression. EMT is marked also by increased invasiveness of cancer cells. Therefore, the invasive property of MDA-MB-231 cells treated with MC-1-F2 was examined (FIGS. 6B&C).
# Matrigel invasion chambers (Corning) were allowed to come to room temperature and allowed to rehydrate for 2 hours in a cell incubator. Cells were treated 24 hours prior to assay and starved in 2% FBS in DMEM for 2 hours prior to assay. A cell suspension containing 5×10^4 cells/mL was prepared. Chemoattractant (DMEM+10% FBS) was added to the bottom of the wells. Using forceps, the inserts were transferred inside the wells and 0.5 mL of cell suspension was immediately added. The chambers were incubated for 22 hours in a humidified tissue culture incubator. After the 22 hours, the non-invading cells were removed by scrubbing the surface of the membrane. […] The cells were stained with 0.5% crystal violet solution and several images of the wells were then taken and total number of cells counted for analysis.
smiles,measurement,setting,value
N=C(N)NCCCCNc1nc(Nc2ccc(Oc3ccccc3)cc2)nc(N2CCN(c3nc(N)nc(Nc4ccc(N5CCOCC5)cc4)n3)CC2)n1 [MC-1-F2],AR expression,[1],no effect on AR expression
same,"CSC markers Nanog, C-myc and KLF4",[1],significant decreases
same,E-cadherin expression levels,[1],recovery of E-cadherin
same,"EMT markers ZEB1, Vimentin, N-cadherin and Slug",[1],inhibit various EMT markers
same,epithelial marker ZO-1 expression,[1],recovery of the epithelial marker ZO-1
same,combination index with docetaxel (CompuSyn),[2],negative combination index
same,combination effect with docetaxel,[2]; 24 hours,synergistic effects
same,combination effect with enzalutamide (CompuSyn),[2]; 24 hours,only additive effects
same,invasive property (transwell invasion),[3],decrease in the invasive property
